pEC50: −log10 of the molar value. “And” between values parts separate entries of the source, which are not always exact repeats. Equal entries are not always repeated.
Experiments:
[1] = biological target: T1, hyperactive mutant BKCa channels (hSlo G803D/N806K) stably expressed in AD 293 cells (Homo sapiens, UniProt Q12791, G856D/N859K); assay: Cell-based fluorescence assay (FluxOR Potassium Ion Channel Assay) of BKCa channel activation; design: key to Channel activity increase for 80 s (ΔRFU) at 6 μM: ratio of ΔRFU (RFU at 100 s − 20 s) to the same ΔRFU for vehicle; details: for Initial velocity of channel activation for 4 s (vi) at 6 μM: first 4 s after channel stimulation; for Channel activity increase for 80 s (ΔRFU) at 6 μM: normalized by vehicle; for pEC50: fit of dose-response curve of initial rates, read-out: Apparent EC50 based on vi; for activation effect on the BKCa channels at a single concentration: 3 μM
T1 construct: expressed in transfected cells
Method: AD 293 cells, which are derivatives of the commonly used HEK 293 cell line and stably express hyperactive mutant BKCa channels (hSlo G803D/N806K) to sensitively detect the effect (Lee et al., 2013), were cultured in Dulbecco' modified Eagle medium (Hyclone, Logan, Utah, […]) supplemented with 10% fetal bovine serum, and selected with 1 mg/mL Geneticin (Gibco, Amarillo, TX, USA). 20,000 cells per well were seeded on a 96-well clear-bottom black plate (Corning, New York, NY, USA) coated with poly-D-lysine (Gibco). BKCa channel activity was measured using the cell-based fluorescence assay, FluxOR Potassium Ion Channel Assay (Thermo Fisher Scientific, Waltham, MA, USA). Experimental procedures were performed according to the manufacturer's instructions. The cells were treated with test compounds dissolved in assay buffer for 15 minutes. Fluorescence was measured using a FlexStation3 multimode microplate reader (Molecular Devices, Silicon Valley, CA, USA) and SoftMax Pro (Molecular Devices). Excitation and emission wavelengths were set to 485 nm and 528 nm, respectively. Fluorescence signals were acquired every 2 seconds for 120 seconds and normalized by the relative fluorescence unit (RFU). The efficacy of a channel activator was determined by analyzing changes (ΔRFU) in the RFU for 80 seconds after channel stimulation.
Activation effects of the synthesized compounds on BKCa channels were evaluated using cell-based fluorescence assay. NS11021 was used as the positive control. The effects were determined based on the initial rate (vi) of channel activation and the apparent EC50 value obtained from fitting data of the dose-response curve. Here, Vi means change values for 4 seconds at the start of channel opening (vi={RFU(t=24 s)−RFU(t=20 s)}/4 s). […]

[2] = biological target: T1, hyperactive mutant BKCa channels (hSlo G803D/N806K) stably expressed in AD 293 cells; assay: as above; details: compounds at 5 μM; n=3; vehicle 0.26

T1 sequence (Q12791 whole entry G856D/N859K): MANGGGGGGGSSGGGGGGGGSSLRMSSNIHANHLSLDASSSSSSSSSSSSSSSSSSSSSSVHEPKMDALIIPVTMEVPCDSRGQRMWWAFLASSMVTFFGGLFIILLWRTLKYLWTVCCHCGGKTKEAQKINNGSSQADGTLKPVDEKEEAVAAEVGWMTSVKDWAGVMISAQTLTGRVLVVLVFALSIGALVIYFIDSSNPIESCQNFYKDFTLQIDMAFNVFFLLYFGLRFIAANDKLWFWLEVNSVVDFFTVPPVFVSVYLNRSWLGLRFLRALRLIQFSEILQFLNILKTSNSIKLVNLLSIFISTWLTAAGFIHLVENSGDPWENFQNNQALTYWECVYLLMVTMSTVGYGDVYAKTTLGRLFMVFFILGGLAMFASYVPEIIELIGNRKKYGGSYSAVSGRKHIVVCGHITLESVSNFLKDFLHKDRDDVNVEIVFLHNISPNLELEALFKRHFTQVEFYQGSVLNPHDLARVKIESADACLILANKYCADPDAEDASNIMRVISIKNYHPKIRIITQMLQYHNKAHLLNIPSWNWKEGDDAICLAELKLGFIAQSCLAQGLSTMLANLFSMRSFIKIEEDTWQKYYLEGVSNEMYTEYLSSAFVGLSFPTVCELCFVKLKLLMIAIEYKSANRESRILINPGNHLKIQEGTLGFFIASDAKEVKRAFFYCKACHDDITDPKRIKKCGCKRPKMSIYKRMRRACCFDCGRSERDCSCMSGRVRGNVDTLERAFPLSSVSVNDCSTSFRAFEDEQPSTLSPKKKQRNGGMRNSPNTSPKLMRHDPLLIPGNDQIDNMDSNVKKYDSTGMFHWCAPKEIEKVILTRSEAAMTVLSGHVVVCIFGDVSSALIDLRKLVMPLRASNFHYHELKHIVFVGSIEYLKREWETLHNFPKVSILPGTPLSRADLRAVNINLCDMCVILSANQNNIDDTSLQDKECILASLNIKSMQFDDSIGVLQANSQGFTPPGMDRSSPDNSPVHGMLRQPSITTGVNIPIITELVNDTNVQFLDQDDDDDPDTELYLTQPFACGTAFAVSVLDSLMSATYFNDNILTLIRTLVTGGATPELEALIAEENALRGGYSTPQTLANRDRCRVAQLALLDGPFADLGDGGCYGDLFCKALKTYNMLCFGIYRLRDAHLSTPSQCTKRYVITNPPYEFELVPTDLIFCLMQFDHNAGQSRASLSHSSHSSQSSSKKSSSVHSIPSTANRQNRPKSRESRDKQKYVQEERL

Row | Structure (SMILES) | Initial velocity of channel activation for 4 s (vi) at 6 μM [1] [s⁻¹] | Channel activity increase for 80 s (ΔRFU) at 6 μM [1] | pEC50 [1] | BKCa activity [1] | activation effect on the BKCa channels at a single concentration [1] | Activity (ΔRFU normalized by activities of LDD175) [2]
1 | O=C(O)c1sc(=S)n2c1[nH]c(=O)c1ccccc12 [Compound 3, 5-oxo-1-thioxo-4,5-dihydro-1H-thiazolo[3,4-a]quinazoline-3-carboxylic acid] | 0.38 | 1.38 | 4.90 | – | – | –
2 | NC(=O)c1sc(=S)n2c1[nH]c(=O)c1ccccc12 [Compound 4, 5-oxo-1-thioxo-4,5-dihydro-1H-thiazolo[3,4-a]quinazoline-3-carboxamide] | 0.32 | 0.96 | – | – | – | –
3 | O=C(NCc1ccccc1)c1sc(=S)n2c1[nH]c(=O)c1ccccc12 [Compound 5, N-benzyl-5-oxo-1-thioxo-4,5-dihydro-1H-thiazolo[3,4-a]quinazoline-3-carboxamide] | 0.26 | 1.10 | – | – | – | –
4 | O=C(Nc1ccccc1)c1sc(=S)n2c1[nH]c(=O)c1ccccc12 [Compound 101, 5-oxo-N-phenyl-1-thioxo-4,5-dihydro-1H-thiazolo[3,4-a]quinazoline-3-carboxamide] | 0.42 | 1.03 | – | – | – | –
5 | Cc1ccc2c(=O)[nH]c3c(C(=O)Nc4ccccc4)sc(=S)n3c2c1 [Compound 102, 8-methyl-5-oxo-N-phenyl-1-thioxo-4,5-dihydro-1H-thiazolo[3,4-a]quinazoline-3-carboxamide] | 0.23 | 1.06 | – | – | – | –
6 | O=C(Nc1ccccc1)c1sc(=S)n2c1[nH]c(=O)c1ccc(Cl)cc12 [Compound 103, 8-chloro-5-oxo-N-phenyl-1-thioxo-4,5-dihydro-1H-thiazolo[3,4-a]quinazoline-3-carboxamide] | – | 1.56 | – | – | – | –
7 | O=C(Nc1ccccc1)c1sc(=S)n2c1[nH]c(=O)c1ccc(Br)cc12 [Compound 104, 8-bromo-5-oxo-N-phenyl-1-thioxo-4,5-dihydro-1H-thiazolo[3,4-a]quinazoline-3-carboxamide] | – | 1.25 | – | – | – | –
8 | Cc1ccc2c(c1)c(=O)[nH]c1c(C(=O)Nc3ccccc3)sc(=S)n12 [Compound 105, 7-methyl-5-oxo-N-phenyl-1-thioxo-4,5-dihydro-1H-thiazolo[3,4-a]quinazoline-3-carboxamide] | 0.32 | 1.16 | – | – | – | –
9 | O=C(Nc1ccccc1)c1sc(=S)n2c1[nH]c(=O)c1cc(Cl)ccc12 [Compound 106, 7-chloro-5-oxo-N-phenyl-1-thioxo-4,5-dihydro-1H-thiazolo[3,4-a]quinazoline-3-carboxamide] | 0.38 | 1.18 | – | – | – | –
10 | O=C(Nc1ccccc1)c1sc(=S)n2c1[nH]c(=O)c1cc(Br)ccc12 [Compound 107, 7-bromo-5-oxo-N-phenyl-1-thioxo-4,5-dihydro-1H-thiazolo[3,4-a]quinazoline-3-carboxamide] | 5.51 | 3.83 | 4.91 | – | – | –
11 | Cc1ccccc1NC(=O)c1sc(=S)n2c1[nH]c(=O)c1cc(Br)ccc12 [Compound 201, 7-bromo-5-oxo-1-thioxo-N-(o-tolyl)-4,5-dihydro-1H-thiazolo[3,4-a]quinazoline-3-carboxamide] | 9.40 | 3.68 | 5.34 | – | – | –
12 | Cc1ccc(NC(=O)c2sc(=S)n3c2[nH]c(=O)c2cc(Br)ccc23)cc1 [Compound 203, 7-bromo-5-oxo-1-thioxo-N-(p-tolyl)-4,5-dihydro-1H-thiazolo[3,4-a]quinazoline-3-carboxamide] | 0.71 | 1.41 | – | – | – | –
13 | COc1cccc(NC(=O)c2sc(=S)n3c2[nH]c(=O)c2cc(Br)ccc23)c1 [Compound 204, 7-bromo-N-(3-methoxyphenyl)-5-oxo-1-thioxo-4,5-dihydro-1H-thiazolo[3,4-a]quinazoline-3-carboxamide] | 6.00 | 3.35 | 5.18 | – | – | –
14 | O=C(Nc1cccc(O)c1)c1sc(=S)n2c1[nH]c(=O)c1cc(Br)ccc12 [Compound 205, 7-bromo-N-(3-hydroxyphenyl)-5-oxo-1-thioxo-4,5-dihydro-1H-thiazolo[3,4-a]quinazoline-3-carboxamide] | 4.03 | 4.88 | 4.95 | – | – | –
15 | O=C(Nc1cccc(F)c1)c1sc(=S)n2c1[nH]c(=O)c1cc(Br)ccc12 [Compound 206, 7-bromo-N-(3-fluorophenyl)-5-oxo-1-thioxo-4,5-dihydro-1H-thiazolo[3,4-a]quinazoline-3-carboxamide] | 12.55 | 2.85 | 5.94 | significant improvement | – | –
16 | O=C(Nc1cccc(Cl)c1)c1sc(=S)n2c1[nH]c(=O)c1cc(Br)ccc12 [Compound 207, 7-bromo-N-(3-chlorophenyl)-5-oxo-1-thioxo-4,5-dihydro-1H-thiazolo[3,4-a]quinazoline-3-carboxamide] | 16.12 | 3.56 | 5.31 | – | – | –
17 | O=C(Nc1cccc(OC(F)(F)F)c1)c1sc(=S)n2c1[nH]c(=O)c1cc(Br)ccc12 [Compound 209, 7-bromo-5-oxo-1-thioxo-N-(3-(trifluoromethoxy)phenyl)-4,5-dihydro-1H-thiazolo[3,4-a]quinazoline-3-carboxamide] | 14.78 | 4.37 | 5.42 | – | – | –
18 | O=C(Nc1cc(C(F)(F)F)cc(C(F)(F)F)c1)c1sc(=S)n2c1[nH]c(=O)c1cc(Br)ccc12 [Compound 210, N-(3,5-bis(trifluoromethyl)phenyl)-7-bromo-5-oxo-1-thioxo-4,5-dihydro-1H-thiazolo[3,4-a]quinazoline-3-carboxamide] | 2.08 | 2.28 | 4.76 | – | – | –
19 | FC(F)(F)c1cc(NC(=S)Nc2ccc(Br)cc2-c2nn[nH]n2)cc(C(F)(F)F)c1 [NS11021, reference compound] | 1.63 | 1.86 | 4.83 and 4.84 | – | significant activation effects | –
20 | COC(=O)c1ccc2c(=O)[nH]c3c(C(=O)Nc4cccc(F)c4)sc(=S)n3c2c1 [TTQC-2, methyl 3-((3-fluorophenyl)carbamoyl)-5-oxo-1-thioxo-4,5-dihydro-1H-thiazolo[3,4-a]quinazoline-8-carboxylate] | – | – | – | – | – | 0.99
21 | CCOC(=O)c1ccc(NC(=O)c2sc(=S)n3c2[nH]c(=O)c2ccc(Cl)cc23)cc1 [TTQC-3, ethyl 4-(8-chloro-5-oxo-1-thioxo-4,5-dihydro-1H-thiazolo[3,4-a]quinazoline-3-carboxamido)benzoate] | – | – | – | – | – | 0.96
22 | CCc1ccccc1NC(=O)c1sc(=S)n2c1[nH]c(=O)c1ccc(Cl)cc12 [TTQC-4, 8-chloro-N-(2-ethylphenyl)-5-oxo-1-thioxo-4,5-dihydro-1H-thiazolo[3,4-a]quinazoline-3-carboxamide] | – | – | – | – | – | 0.95
23 | COc1ccccc1NC(=O)c1sc(=S)n2c1[nH]c(=O)c1cc(Cl)ccc12 [TTQC-5, 7-chloro-N-(2-methoxyphenyl)-5-oxo-1-thioxo-4,5-dihydro-1H-thiazolo[3,4-a]quinazoline-3-carboxamide] | – | – | – | – | – | 0.90
24 | CC(C)NC(=O)c1sc(=S)n2c1[nH]c(=O)c1cc(Br)ccc12 [TTQC-6, 7-bromo-N-isopropyl-5-oxo-1-thioxo-4,5-dihydro-1H-thiazolo[3,4-a]quinazoline-3-carboxamide] | – | – | – | – | – | 0.90
25 | C=C(C)[C@H](CC=C(C)C)Cc1c(O)cc(OC)c2c1O[C@H](c1ccc(O)cc1O)CC2=O [kurarinone, reference compound] | – | – | – | – | significant activation effects | –
26 | CC(=O)c1c(O)c(C)c(O)c(Cc2c(O)c3c(c(C(=O)/C=C/c4ccccc4)c2O)OC(C)(C)C=C3)c1O [rottlerin, reference compound] | – | – | – | – | significant activation effects | –

— patent publication US20240398813A1, “PHARMACEUTICAL COMPOSITION FOR PREVENTING OR TREATING OVERACTIVE BLADDER” (GWANGJU INSTITUTE OF SCIENCE AND TECHNOLOGY, priority 2021, published 2024)
